Results taken from patent US8048877B2, “Guanidine derivatives and their medical use” (Neurosearch A/S, priority 2006, dated 2011).
Where a name gives a salt, the structure may show the parent alone.

How the values were obtained:
hSK3 channels = target: T1, hSK3 channels (Homo sapiens, UniProt Q9UGI6); assay: whole-cell patch-clamp recording of SK3 current in HEK293 cells expressing hSK3 channels; assay type: cell-based; conditions: current at −75 mV, free Ca2+ 0.3-0.4 μM, room temperature, read-out: Kd value (concentration required for decreasing the baseline current to 50% of the initial current)
T1 construct: expressed in transfected cells; host or cells: HEK293
Experimental: The ionic current through small-conductance Ca^2+-activated K^+ channels (SK channels, subtype 3) was recorded using the whole-cell configuration of the patch-clamp technique.
HEK293 tissue culture cells expressing hSK3 channels were grown in DMEM (Dulbecco's Modified Eagle Medium) supplemented with 10% FCS (foetal calf serum) at 37° C. in 5% CO2. At 60-80% confluency, cells were harvested by trypsin treatment and seeded on cover slips.
Cells plated on coverslips were placed in a 15 μl perfusion chamber (flowrate ˜1 ml/min) mounted on an inverted microscope placed on a vibration-free table in a grounded Faraday cage. The experiments were performed at room temperature (20-22° C.). […] Data were stored directly on the hard-disk and analysed by IGOR software (Wavemetrics, Lake Oswega, Oreg., USA).
The whole-cell configuration of the patch-clamp technique was applied. […] Cell capacitance was electronically compensated and the resistance between the pipette and the cell interior (the series resistance, Rs) was measured and compensated for. […]
The intracellular (pipette) solution contained: 154 mM KCl, 10 mM HEPES, 10 mM EGTA. Concentrations of CaCl2 and MgCl2 needed to obtain the desired free concentrations of Ca^2+ (0.3-0.4 μM, Mg^2+ always 1 mM) were calculated by EqCal software (Cambridge, UK) and added. […]

N=C1N(Cc2ccc(F)c(F)c2)Cc2ccccc2N1Cc1ccc(F)c(F)c1 (as salt: salt) [Compound 4, 1,3-Bis-(3,4-difluorobenzyl)-3,4-dihydro-1H-quinazolin-2-ylideneamine]
melting point: 215 to 218 °C

N=C1N(Cc2cc(F)c(F)cc2Br)Cc2ccccc2N1Cc1cc(F)c(F)cc1Br (as salt: salt) [Compound 9, 1,3-Bis-(2-bromo-4,5-difluorobenzyl)-3,4-dihydro-1H-quinazolin-2-ylideneamine]
melting point: 220 to 224 °C

N=C1N(Cc2ccc(F)c(F)c2)[C@@H]2CCCC[C@H]2N1Cc1ccc(F)c(F)c1 (racemic) (as salt: salt) [Compound 5, (±)-trans-1,3-Bis-(3,4-difluoro-benzyl)octahydro-benzoimidazol-2-ylideneamine]
melting point: 238 to 240 °C

N=C1N(Cc2ccc(F)c(F)c2)CCCN1Cc1ccc(F)c(F)c1 [Compound 7, 1,3-Bis-(3,4-difluorobenzyl)tetrahydropyrimidin-2-ylideneamine]
Kd (hSK3 channels): < 1000 nM

COc1ccc(OC(F)(F)F)cc1CN1CCN(Cc2cc(OC(F)(F)F)ccc2OC)C1=N [Compound 15, 1,3-Bis-(2-methoxy-5-trifluoromethoxybenzyl)imidazolidin-2-ylideneamine]
Kd (hSK3 channels): < 1000 nM
